Measurements from patent publication US12187705B2, “Heteroaryl-triazole and heteroaryl-tetrazole compounds as pesticides” (Bayer Aktiengesellschaft, priority 2018, dated 2025).

Assays:
Assay type in all cases: in vivo
[1] = system: Boophilus microplus; experiment: Boophilus microplus injection test; conditions: Rhipicephalus microplus, 168 h, 20 μg/animal, egg deposition after 7 days, read-out: efficacy (infertile eggs)
Method: Boophilus microplus—Injection Test
(§1) Solvent: dimethyl sulfoxide
To produce a suitable preparation of active compound, 10 mg of active compound are dissolved in 0.5 ml solvent, and the concentrate is diluted with solvent to the desired concentration.
Five adult engorged female ticks (Boophilus microplus) are injected with 1 μl compound solution into the abdomen. The ticks are transferred into replica plates and incubated in a climate chamber.
After 7 days egg deposition of fertile eggs is monitored. Eggs where fertility is not visible are stored in a climate chamber till hatching after about 42 days. An efficacy of 100% means all eggs are infertile; 0% means all eggs are fertile.

[2] = system: Myzus persicae; experiment: Myzus persicae spray test; conditions: in Brassica rapa, foliar, 120 h
Method: Myzus persicae—Spray Test
(§2) To produce a suitable preparation of active compound, 1 part by weight of active compound is mixed with the stated amount of solvents and is diluted with water, containing an emulsifier concentration of 1000 ppm, to the desired concentration. Further test concentrations are prepared by dilution with emulsifier containing water.
Chinese cabbage (Brassica pekinensis) leaf disks infected with all instars of the green peach aphid (Myzus persicae), are sprayed with a preparation of the active ingredient of the desired concentration.
(§3) After 5 days mortality in % is determined. 100% means all aphids have been killed and 0% means none of the aphids have been killed.

[3] = system: Nezara viridula; experiment: Nezara viridula spray test; conditions: in Hordeum vulgare, 96 h
Method: Nezara viridula—Spray Test
as §2, with “solvent,” for “solvents”, “and the concentrate” for “and”
Barley plants (Hordeum vulgare) infested with larvae of the southern green stink bug (Nezara viridula) are sprayed with a test solution containing the desired concentration of the active ingredient.
After 4 days mortality in % is determined. 100% means all the stink bugs have been killed; 0% means none of the stink bugs have been killed.

[4] = system: Ctenocephalides felis; experiment: Ctenocephalides felis oral test; conditions: Ctenocephalides felis, in Bos taurus, po, 48 h
Method: Ctenocephalides felis—Oral Test
as §1
To produce a suitable preparation of active compound, 10 mg of active compound are dissolved in 0.5 ml solvent, and the concentrate is diluted with cattle blood to the desired concentration.
Approximately 20 adult unfed cat fleas (Ctenocephalides felis) are placed in flea chambers. The blood chamber, sealed with parafilm on the bottom, are filled with cattle blood supplied with compound solution and placed on the gauze covered top of the flea chamber, so that the fleas are able to suck the blood. The blood chamber is heated to 37° C. whereas the flea chamber is kept at room temperature.
After 2 days mortality in % is determined. 100% means all the fleas have been killed; 0% means none of the fleas have been killed.

[5] = system: Nilaparvata lugens; experiment: Nilaparvata lugens spray test; conditions: Nilaparvata lugens, in Oryza sativa, 96 h
Method: Nilaparvata lugens—Spray Test
as §2
Rice plants (Oryza sativa) are sprayed with a preparation of the active ingredient of the desired concentration and the plants are infested with the brown planthopper (Nilaparvata lugens).
After 4 days mortality in % is determined. 100% means all planthoppers have been killed and 0% means none of the planthoppers have been killed.

[6] = system: Myzus persicae; experiment: Myzus persicae oral test; conditions: 120 h
Method: To produce a suitable preparation of active compound, 1 part by weight of active compound is mixed with the stated amount of solvent, and the concentrate is diluted with water to the desired concentration.
50 μl compound solution is filled in microtiter plates and 150 μl IPL41 insect medium (33%+15% sugar) is added to obtain a total volume of 200 μl per well. Afterwards the plates are sealed with parafilm through which a mixed population of the green peach aphid (Myzus persicae) can suck on the compound preparation.
as §3

[7] = system: Ctenocephalides felis; experiment: Ctenocephalides felis in-vitro contact test adult cat flea; conditions: Ctenocephalides felis; 5 μg/cm^2 (=500 g/ha), after 48 hours; read-out: efficacy (fleas dead or moribund)
Method: Ctenocephalides felis—In-Vitro Contact Test Adult Cat Flea
9 mg compound is solved in 1 ml acetone and diluted with acetone to the desired concentration. 250 μl of the test solution is filled in 25 ml glass test tubes and homogeneously distributed on the inner walls by rotation and tilting on a shaking device (2 h at 30 rpm). With a compound concentration of 900 ppm, an inner surface of 44.7 cm^2 and a homogeneous distribution, a dose of 5 μg/cm^2 is achieved.
After the solvent has evaporated, each test tube is filled with 5-10 adult cat fleas (Ctenocephalides felis), closed with a perforated lid and incubated in a lying position at room temperature and relative humidity. After 48 hours efficacy is determined. The fleas are patted on the ground of the tubes and are incubated on a heating plate at 45-50° C. for at most 5 minutes. Immotile or uncoordinated moving fleas, which are not able to escape the heat by climbing upwards, are marked as dead or moribund.
An efficacy of 100% means all fleas are dead or moribund; 0% means no fleas are dead or moribund.

[8] = system: Diabrotica balteata; experiment: Diabrotica balteata spray test; conditions: Diabrotica balteata, 168 h; 160 μg/well, wheat seeds, after 7 days; read-out: efficacy (seedlings grown)
Method: Diabrotica balteata—Spray Test
as §2, with “solvent,” for “solvents”, “and the concentrate” for “and”
Soaked wheat seeds (Triticum aestivum) are placed in a multiple well plate filled with agar and some water and are incubated for 1 day to germinate (5 seeds per well). The germinated wheat seeds are sprayed with a test solution containing the desired concentration of the active ingredient. Afterwards each unit is infected with 10-20 larvae of the banded cucumber beetle (Diabrotica balteata).
After 7 days efficacy in % is determined. 100% means all the seedlings have grown up like in the untreated, uninfected control; 0% means none of the seedlings have grown.

[9] = system: Culex quinquefasciatus strain P00; experiment: Culex quinquefasciatus test (CULXFA surface treatment & contact assay); conditions: 24 hours after contact, read-out: efficacy (mortality); for mortality at 4 mg/m2: surface concentration 4 mg/m^2, 30 minutes exposure; for mortality at 20 mg/m2: surface concentration 20 mg/m^2, 30 minutes exposure
Method: Culex quinquefasciatus Test (CULXFA Surface Treatment & Contact Assay)
(§4) Solvent: Aceton+2000 ppm rapeseed oil methyl ester (RME)
(§5) In order to produce a sufficient, active ingredient containing solution it is necessary to solve the test-compound in the solvent-mix (Acetone at 2 mg/ml/RME 2000 ppm). This solution is pipetted onto a glazed tile and after evaporation of the Acetone, adult mosquitoes of the species Culex quinquefasciatus strain P00 are placed onto the dried surface. The exposure time is 30 minutes.
(§6) Mortality in percent (%) is determined 24 hours after contact to the treated surface. 100% mortality means that all test-insects are dead, whereas 0% means that not a single insect died.

[10] = system: Aedes aegypti strain MONHEIM; experiment: Aedes aegypti test (AEDSAE surface treatment & contact assay); conditions: 24 hours after contact, read-out: efficacy (mortality); for mortality at 4 mg/m2: surface concentration 4 mg/m^2, 30 minutes exposure; for mortality at 20 mg/m2: surface concentration 20 mg/m^2, 30 minutes exposure
Method: Aedes aegypti Test (AEDSAE Surface Treatment & Contact Assay)
as §4
as §5, with “Aedes aegypti” for “Culex quinquefasciatus”, “MONHEIM” for “P00”
as §6

[11] = system: Anopheles funestus strain FUMOZ-R; experiment: Anopheles funestus test (ANPHFU surface treatment & contact assay); conditions: 24 hours after contact, read-out: efficacy (mortality); for mortality at 20 mg/m2: surface concentration 20 mg/m^2, 30 minutes exposure
Method: Anopheles funestus Test (ANPHFU Surface Treatment & Contact Assay)
as §4
as §5, with “Anopheles funestus” for “Culex quinquefasciatus”, “FUMOZ-R (Hunt et al., Med Vet Entomol. 2005 September; 19(3):271-5)” for “P00”
as §6

[12] = system: Spodoptera frugiperda; experiment: Spodoptera frugiperda spray test; conditions: in Zea mays, 168 h
Method: Spodoptera frugiperda—Spray Test
as §2
Maize (Zea mays) leaf sections are sprayed with a preparation of the active ingredient of the desired concentration. Once dry, the leaf sections are infested with fall armyworm larvae (Spodoptera frugiperda).
After 7 days mortality in % is determined. 100% means all caterpillars have been killed and 0% means none of the caterpillars have been killed.

SMILES | pest or weed control at 0.02 mg [1] [%] | mortality at 500 g/ha [2] [%] | mortality at 500 g/ha [3] [%] | mortality at 100 ppm [4] [%] | mortality at 500 g/ha [5] [%] | mortality at 4 ppm [6] [%] | pest or weed control at 5 µg/cm2, 5 µg/cm2 [7] [%] | pest or weed control at 160 µg/disc, 160 µg/well [8] [%] | mortality at 4 mg/m2 [9] [%] | mortality at 20 mg/m2 [9] [%] | mortality at 4 mg/m2 [10] [%] | mortality at 20 mg/m2 [10] [%] | mortality at 4 mg/m2 ([11]; surface concentration 4 mg/m^2, 30 minutes exposure) [%] | mortality at 20 mg/m2 [11] [%] | mortality at 500 g/ha [12] [%]
CC(c1ncnn1-c1ncccn1)N(CCC(F)(F)F)C(=O)c1cc(Cl)cc(S(C)(=O)=O)c1 (centres unmarked) [Example I-039] | 100 | 100 | 100 | 100 | 100 | 100 | 100 | 100 | – | – | – | – | – | – | –
CC(c1ncnn1-c1ncccn1)N(CC(F)F)C(=O)c1cc(Cl)cc(S(C)(=O)=O)c1 (centres unmarked) [Example I-041] | 100 | – | 100 | 100 | 100 | 100 | 90 | 100 | 80 to 100 | 80 to 100 | 80 to 100 | 90 to 100 | 85 to 100 | 85 to 100 | –
CON=C(C)c1cc(Cl)cc(C(=O)N[C@@H](C)c2ncnn2-c2ncccn2)c1 [Example I-057, 3-chloro-5-(N-methoxyethanimidoyl)-N-{(1S)-1-[1-(pyrimidin-2-yl)-1H-1,2,4-triazol-5-yl]ethyl}benzamide] | – | 90 | 100 | 100 | – | 100 | 100 | 80 | – | 80 to 100 | 80 to 100 | 90 to 100 | – | – | 100
C[C@H](NC(=O)c1cc(Cl)cc(S(C)(=O)=O)c1)c1nc(C(F)(F)F)nn1-c1ncccn1 [Example I-091, 3-chloro-N-{(1S)-1-[1-(2-pyrimidinyl)-3-(trifluoromethyl)-1H-1,2,4-triazol-5-yl]ethyl}-5-(methylsulfonyl)benzamide] | – | 90 | 100 | 100 | – | 100 | 100 | 100 | 80 to 100 | 80 to 100 | 80 to 100 | 90 to 100 | – | 85 to 100 | 83
C[C@@H](NC(=O)c1cc(Cl)cc(S(C)(=O)=O)c1)c1ncnn1-c1ncc(C(F)(F)F)cn1 [Example I-095] | – | 90 | 100 | – | – | 100 | 100 | 100 | – | – | – | – | – | – | 100
Cc1cnc(-n2ncnc2[C@@H](C)NC(=O)c2cc(Cl)cc(S(C)(=O)=O)c2)nc1 [Example I-096] | – | 90 | 100 | – | – | 100 | – | – | – | – | – | – | – | – | 100
Cc1cnc(-n2ncnc2[C@@H](C)NC(=O)c2cc(Cl)cc(S(=O)(=O)C(F)(F)F)c2)nc1 [Example I-099] | – | 100 | 100 | – | – | 100 | – | 100 | – | – | – | – | – | – | 100
C[C@@H](NC(=O)c1csc(Cl)c1)c1ncnn1-c1ccc(C#N)cn1 [Example I-114] | – | 90 | – | – | – | – | – | 100 | – | – | – | – | – | – | –
C[C@H](NC(=O)c1cc(Cl)cc(C2(C#N)CC2)c1)c1ncnn1-c1ccc(C#N)cn1 [Example I-119, 3-chloro-5-(1-cyanocyclopropyl)-N-{(1S)-1-[1-(5-cyanopyridin-2-yl)-1H-1,2,4-triazol-5-yl]ethyl}benzamide] | – | 90 | 100 | – | – | 100 | – | 100 | – | – | – | – | – | – | 100
C[C@@H](NC(=O)c1cc(Cl)cc(C(C)(C)C)c1)c1ncnn1-c1ncccn1 [Example I-124] | – | 100 | 100 | – | – | – | – | 100 | – | – | – | – | – | – | –
